In patent publication US11124479B2, “Oligopyrroles as antagonists of islet amyloid polypeptide oligomerization” (New York University, priority 2017, dated 2021):

Key:
[1] = target: T1, islet amyloid polypeptide (IAPP) (Homo sapiens, UniProt P10997); experiment: PICUP SDS-PAGE silver staining of IAPP oligomerization; format: biochemical; conditions: 15 μM IAPP, equimolar ratio, up to 300 min
T1 construct: IAPP is a 37 residue neuropancreatic hormone peptide; purchased Anaspec (Fremont, Calif.)
T1 sequence (P10997 34-70 limits assumed): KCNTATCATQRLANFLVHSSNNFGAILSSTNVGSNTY
Experimental: The effect of ADH-101 on the oligomerization of IAPP was evaluated using performance photo-induced cross-linking of unmodified proteins (PICUP) SDS-PAGE-silver staining as described in Ono, K.; Condron, M. M.; Teplow, D. B. Proc. Natl. Acad. Sci. U.S.A. 2009, 106, 14745-14750 (FIG. 2E). IAPP was incubated in a buffer in the presence and absence of ADH-101 at an equimolar ratio, and the solutions were then treated with the cross-linking agent at various time intervals (FIG. 2E). IAPP forms oligomers of varying sizes as a function of time (FIG. 2E, Lane i-iv). […] Without wishing to be bound by any theory, it is postulated that ADH-101 forms a complex with monomeric IAPP and abolishes the oligomerization of IAPP.

[2] = target: T2, IAPP-induced lipid membrane leakage (Homo sapiens, UniProt P10997); experiment: Fluorescein-based liposome leakage assay; format: biochemical
T2 construct: IAPP is a 37 residue neuropancreatic hormone peptide; purchased Anaspec (Fremont, Calif.)
T2 sequence (P10997 34-70 limits assumed): T1 sequence (P10997 34-70 limits assumed)
Text: Colocalization of IAPP at the mitochondrial membrane and the subsequent membrane poration is considered to be one of the potential contributors to β-cell toxicity. Therefore, a liposome leakage assay could serve as a surrogate marker for IAPP induced cytotoxicity (see Last, N. B.; Miranker, A. D. Proc. Natl. Acad. Sci. U.S.A. 2013, 110, 6382-6387; and Last, N. B.; Rhoades, E.; Miranker, A. D. Proc. Natl. Acad. Sci. U.S.A. 2011, 108, 9460-9465). A previously reported fluorescein-based liposome leakage assay was employed to test the effect of ADH-101 on membrane associated α-helical intermediates of IAPP. Briefly, fluorescein-dextran conjugate (MW=70 kDa) was encapsulated in unilamaller extruded lipid vesicles (DOPG:DOPC, 3:7, d=100 nm). The size of fluorescein-dextran conjugate allows it to stay inside the lipid vesicles during IAPP mediated membrane poration. The leakage kinetics was probed by the quenching of fluorescence using a fluorescent quencher, DPX (p-xylene-bis-pyridinium […]). The kinetic profiles of leakage are single exponential with a decrease in fluorescence as a function of time. The leakage reaction was initiated by introducing 200 μM liposome into a solution of 4 μM IAPP and 6 mM of DPX. The introduction of the excess ionic concentration by DPX was counterbalanced by adjusting the buffer concentration. The kinetics of the leakage mediated by IAPP yielded a single exponential profile with a leakage rate of 7.3±1.1×10^−3 s^−1 (FIG. 5A).
The kinetics of liposome leakage induced by IAPP was monitored on QuantaMaster C-61 fluorescence spectrometer (Photon Technology International, Edison, N.J.) at 25° C. […] The stock solution of IAPP used in the measurements was kept in water at a concentration of 1 mM. The stock solution of water soluble quencher, DPX (p-xylene-bis-pyridinium bromide) was prepared in buffer (100 mM KCl, 50 mM NaPi, pH 7.4) at a concentration of 100 mM. The small molecules used in the leakage assay were dissolved in DMSO with a concentration range of 10-20 mM. The final concentration of dye encapsulating liposome, DPX, human IAPP, and small molecules were 200, 6000, 4, and 4 μM respectively. The final buffer concentration was corrected using higher concentration of buffer to keep the osmolality balanced. […] To determine the leakage rate constant, first the fluorescence was normalized and corrected by subtracting it from normalized fluorescence of control reaction. The corrected fluorescence was fit using equation given below (using Origin 9.1). All the experiments were performed in triplicate and the error values presented are standard deviations. a*exp(−b*x)+c (2) a=amplitude from 100% unleaked to 0% leaked c=final fraction of unleaked liposome y=change in fluorescence b=leakage rate constant

[3] = test system: IAPP mediated cytotoxicity in Rat insulinoma cells (RIN-m); experiment: Cell viability (CellTiter Blue), IAPP-mediated cytotoxicity; format: cell-based; conditions: 6 μM IAPP, 48 h, IAPP alone ~68%
Experimental: (§1) For cell toxicity assays, Rat insulinoma cells (RIN-m) were as they are considered to be a good model for pancreatic β-cells (see Huang, C.; Lin, C.; Haataja, L., Gurlo, T., Butler, A. E., Rizza, R. A., and Butler, P. C. Diabetes, 2007, 56, 2016-2027). Rat insulinoma RIN-m cells (ATCC, Manassas, Va.) were cultured in RPMI medium supplemented with 10% fetal bovine serum, 1% penicillin/streptomycin, […] sodium pyruvate, and […] β-mercaptoethanol (Life Technologies, Carlsbad, Calif.) at 37° C. and 5% CO2. Upon reaching ˜95% confluence, cells were washed with phosphate buffered saline (VWR, Radnor, Pa.), split using 0.25% Trypsin-EDTA (Life Technologies), and plated in clear 96-well plates (Corning, Glenview, Ill.) for cell viability assays.
(§2) Cell viability was measured using the CellTiter Blue (CTB, Promega, Madison, Wis.) fluorescence-based assay. Cells were plated at a density of 20,000 cells per well in 96 well plates. After 48 h of incubation at 37° C. and 5% CO2, cells were washed with 100 μL of PBS. […] Fluorescence of the dye was measured on a FlexStation3 microplate reader (Molecular Devices, Sunnyvale, Calif.). […] Percent viability was calculated as per the following equation: % Viability=100*[(<S>−<P>)/(<N>−<P>)]
(§3) Where <S>, <P>, and <N> are the average fluorescence intensities of the sample, positive control, and negative control, respectively.

RIN-m cells = experiment: Cell viability (CellTiter Blue), compound alone without IAPP; format: cell-based, Rat; conditions: concentrations used for cell viability assays, no IAPP
Experimental: as §1, §2, §3

Partition coefficient = format: physicochemical
[4] = target: T1, islet amyloid polypeptide (IAPP); experiment: ThT-based kinetic assay of IAPP fibrillation; format: biochemical

**Q.** With CCOC(=O)c1cc(NC(=O)c2cc(NC(=O)c3cc([N+](=O)[O-])cn3CC(C)C)cn2CC(C)C)cn1CCC(=O)O [ADH-101] as the molecule, how does the “IAPP oligomerization (PICUP)” value [1] read?
**A.** The value was “completely inhibits the formation of large aggregates”.

**Q.** And the “leakage rate slower than the control reaction (IAPP only)” value ([2]; 4 μM IAPP, 4 μM compound, 200 μM liposome)?
**A.** Its value is roughly 3.5 times.

**Q.** And the “effect on the integrity of the liposomes” value ([2]; ADH-101 alone, 4 μM, no IAPP)?
**A.** Its value is “did not have any effect”.

**Q.** And the cell viability ([3]; ratio 1:1 (IAPP:ADH-101))?
**A.** The cell viability was 100%.

**Q.** And the cell viability ([3]; ratio 1:2 (IAPP:ADH-101))?
**A.** The cell viability was 100%.

**Q.** What about the “toxicity to the cells” value (RIN-m cells) of the same molecule?
**A.** Its value is “not toxic”.

**Q.** What about the logP (Partition coefficient) of the same molecule?
**A.** The logP was 2.2.

**Q.** And the “inhibition of IAPP fibrillation when added during the lag phase, compared to premixed (t=0 h)” value ([4]; added at 1 h and 3 h, equimolar ratio, 10 μM IAPP)?
**A.** The value was “equally effective”.

**Q.** And the “effect on IAPP amyloid fibers (ThT fluorescence)” value ([4]; added to the fibers)?
**A.** Its value is “no effect”.

**Q.** What about the “factor of delay of IAPP amyloid kinetics” value ([4]; cholesterol-containing LUVs (30% cholesterol), 15 μM IAPP, equimolar ratio) of the same molecule?
**A.** Its value is 3.6.
